Experiments:
LCC1 cells = assay: Bortezomib concentration response, Cell Titer Blue viability; format: cell-based; details: 2.5 nM-2.5 μM
Method: (§1) LCC1, LCC9 and MCF7 cells were seeded at density so that the untreated condition was at 80% confluence on day 7 in the appropriate medium. Cells were incubated at 37° C. and 5% CO2 for […]. Twenty-four hours later, cells were treated with Bortezomib with final well concentrations ranging from 2.5 nM-2.5 μM. On the seventh day, 20 μL of 1:1 mixture of Cell Titer Blue (CTB) from Promega and Hank's Buffered Salt Solution (HBSS) was added to each well and incubated for another 4 hours before reading out the results using the EnVision Multilabel Plate Reader from PerkinElmer. Viability was calculated as a percentage of the untreated cells.

LCC9 cells = assay: as above; format: cell-based; details: 2.5 nM-2.5 μM
Method: as §1

## CC(C)C[C@H](NC(=O)[C@H](Cc1ccccc1)NC(=O)c1cnccn1)B(O)O [Bortezomib]
LCC1 cells
  sensitivity to bortezomib compared to MCF7 (concentration response curves): more sensitive
LCC9 cells
  sensitivity to bortezomib compared to MCF7 (concentration response curves): more sensitive

Source: US20150353928A1, “Genes Contributing to Survival of Cancer Cells” (Georgetown University, priority 2011, published 2015)
